In article doi:10.1101/2021.05.17.444520v1 (biorxiv, 2021) one finds EC50 data, which are given here for one compound.

The assay deals with T1, α2wt (Homo sapiens, UniProt P23416).
T1 sequence (P23416 28-452): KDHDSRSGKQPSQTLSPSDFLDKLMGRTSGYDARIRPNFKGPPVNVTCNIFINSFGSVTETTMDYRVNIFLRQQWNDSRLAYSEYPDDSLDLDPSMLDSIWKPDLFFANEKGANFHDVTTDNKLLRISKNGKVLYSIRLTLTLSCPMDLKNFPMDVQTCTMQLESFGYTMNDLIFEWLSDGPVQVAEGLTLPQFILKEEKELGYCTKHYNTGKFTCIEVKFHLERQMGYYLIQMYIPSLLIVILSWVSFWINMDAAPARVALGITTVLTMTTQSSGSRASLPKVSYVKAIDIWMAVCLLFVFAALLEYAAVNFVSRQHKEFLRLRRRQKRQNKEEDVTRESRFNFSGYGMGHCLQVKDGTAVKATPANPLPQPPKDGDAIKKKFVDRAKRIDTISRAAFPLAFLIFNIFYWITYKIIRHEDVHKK
Description: whole-cell patch clamp. In kind it is cell-based. The note with it: agonist; pH 7.4; -80 mV. For orientation: In patch-clamp work, channel activity is measured electrically.

As to `NCC(=O)O` [glycine], the EC50 entry is “Dose response of glycine from (A)”.
